From ChEMBL document CHEMBL1137966, “Thrombin inhibitors built on an azaphenylalanine scaffold” (Bioorg Med Chem Lett, 2004)

Assays:
Coagulation factor X = Coagulation factor X (Homo sapiens, UniProt P00742); assay: In vitro inhibition of Coagulation factor X
Serine protease 1 = Serine protease 1 (Homo sapiens, UniProt P07477); assay: In vitro inhibition of trypsin
Prothrombin = Prothrombin (Homo sapiens, UniProt P00734)
Description: In vitro inhibition of human alpha-thrombin

Chain of Serine protease 1 (P07477 whole entry): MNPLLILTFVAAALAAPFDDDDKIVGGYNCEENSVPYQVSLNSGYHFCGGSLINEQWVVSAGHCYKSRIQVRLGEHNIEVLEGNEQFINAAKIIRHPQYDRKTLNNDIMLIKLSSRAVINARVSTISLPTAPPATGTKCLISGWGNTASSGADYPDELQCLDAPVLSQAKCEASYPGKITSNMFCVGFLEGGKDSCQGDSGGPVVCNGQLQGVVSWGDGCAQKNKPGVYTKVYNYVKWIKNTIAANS
Chain of Coagulation factor X (P00742 41-179 limits assumed): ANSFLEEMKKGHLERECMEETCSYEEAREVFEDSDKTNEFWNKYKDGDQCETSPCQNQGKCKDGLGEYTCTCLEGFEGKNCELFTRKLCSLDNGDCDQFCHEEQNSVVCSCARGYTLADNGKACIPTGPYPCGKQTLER
Chain of Coagulation factor X (P00742 235-488 limits assumed): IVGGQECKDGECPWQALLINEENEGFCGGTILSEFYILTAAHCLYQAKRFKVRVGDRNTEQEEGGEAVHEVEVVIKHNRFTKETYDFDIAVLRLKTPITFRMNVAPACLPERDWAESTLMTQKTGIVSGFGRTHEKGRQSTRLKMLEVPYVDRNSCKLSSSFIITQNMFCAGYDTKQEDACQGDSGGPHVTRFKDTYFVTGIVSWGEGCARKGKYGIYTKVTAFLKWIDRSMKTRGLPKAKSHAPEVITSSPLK

| Structure (SMILES) | Ki (Coagulation factor X) | Ki (Serine protease 1) | Ki (Prothrombin) |
| --- | --- | --- | --- |
| N=C(N)c1ccc(CN(NS(=O)(=O)c2ccc3ccccc3c2)C(=O)N2CCCCCC2)cc1 | 69 µM | 10 µM |  |
| COc1ccc2cc(S(=O)(=O)NN(Cc3cccc(C(=N)NO)c3)C(=O)N3CCCCCC3)ccc2c1 | 103 µM | 17 µM |  |
| COc1ccc2cc(S(=O)(=O)NN(Cc3ccc(C(=N)N)cc3)C(=O)N3CCC(C)CC3)ccc2c1 | > 75 µM | 18 µM | 0.045 µM |
| N/C(=N\O)c1ccc(CN(NS(=O)(=O)c2ccc3ccccc3c2)C(=O)N2CCCCC2)cc1 | > 75 µM | > 68 µM |  |
| N/C(=N\O)c1ccc(CN(NS(=O)(=O)c2ccc(-c3ccccc3)cc2)C(=O)N2CCCCCC2)cc1 |  | > 400 µM | 1.6 µM |
| N/C(=N\O)c1cccc(CN(NS(=O)(=O)c2ccc3ccccc3c2)C(=O)N2CCCCCC2)c1 | > 75 µM | 32 µM |  |
| N/C(=N\O)c1ccc(CN(NS(=O)(=O)c2ccc3ccccc3c2)C(=O)N2CCCCCC2)cc1 | > 75 µM | 13 µM | 0.21 µM |
| CC1CCCCN1C(=O)N(Cc1ccc(C(=N)N)cc1)NS(=O)(=O)c1ccc2ccccc2c1 (stereo unspecified) | 53 µM | 26 µM | 0.085 µM |
| N=C(N)c1ccc(CN(NS(=O)(=O)c2ccc3ccccc3c2)C(=O)N2CCCCC2)cc1 | 66 µM | 13 µM | 0.095 µM |
| COc1ccc2cc(S(=O)(=O)NN(Cc3cccc(C(=N)NO)c3)C(=O)N3CCCCC3C)ccc2c1 (stereo unspecified) | 111 µM | 47 µM | 4.2 µM |
| COc1ccc2cc(S(=O)(=O)NN(Cc3cccc(C(=N)N)c3)C(=O)N3CCCCCC3)ccc2c1 | 3 µM | 0.053 µM |  |
| N=C(N)c1ccc(CN(NS(=O)(=O)c2ccc(-c3ccccc3)cc2)C(=O)N2CCCCCC2)cc1 |  | 23 µM | 0.15 µM |

Now from value to compound:

| Ki (Coagulation factor X) | Ki (Serine protease 1) | Ki (Prothrombin) | Structure (SMILES) |
| --- | --- | --- | --- |
| 5.3 µM | 0.11 µM |  | CC1CCN(C(=O)N(Cc2cccc(C(=N)N)c2)NS(=O)(=O)c2ccc3ccccc3c2)CC1 |
| > 75 µM | 45 µM | 0.43 µM | CC1CCCCN1C(=O)N(Cc1ccc(C(=N)NO)cc1)NS(=O)(=O)c1ccc2ccccc2c1 (stereo unspecified) |
| > 75 µM | > 68 µM |  | CC1CCN(C(=O)N(Cc2cccc(C(=N)NO)c2)NS(=O)(=O)c2ccc3ccccc3c2)CC1 |
| 3.9 µM | 0.14 µM |  | N=C(N)c1cccc(CN(NS(=O)(=O)c2ccc3ccccc3c2)C(=O)N2CCCCCC2)c1 |
| > 75 µM | > 68 µM | 0.38 µM | COc1ccc2cc(S(=O)(=O)NN(Cc3ccc(C(=N)NO)cc3)C(=O)N3CCC(C)CC3)ccc2c1 |
| > 75 µM | > 68 µM | 0.77 µM | CC1CCN(C(=O)N(Cc2ccc(C(=N)NO)cc2)NS(=O)(=O)c2ccc3ccccc3c2)CC1 |
| 5.4 µM | 67 µM |  | CC1CCCCN1C(=O)N(Cc1cccc(C(=N)NO)c1)NS(=O)(=O)c1ccc2ccccc2c1 (stereo unspecified) |
